# PubChem BioAssay (NCI)
#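 Cells were grown in 96-well plates and exposed to each compound for 48 hours at five concentrations; endpoints were interpolated linearly between bracketing concentrations, or set to the highest concentration if not reached. TGI denotes the concentration required for complete inhibition of growth.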
# Experiments:
# Test in all cases: NCI tumour cell line growth inhibition, 48 h
# 786-0 renal = tested on: 786-0 renal
# A498 renal = tested on: A498 renal
# A549 NSCLC = tested on: A549 NSCLC
# ACHN renal = tested on: ACHN renal
# CAKI-1 renal = tested on: CAKI-1 renal
# CCRF-CEM leukemia = tested on: CCRF-CEM leukemia
# COLO 205 colon = tested on: COLO 205 colon
# DLD-1 colon = tested on: DLD-1 colon
# DMS 114 small cell lung = tested on: DMS 114 small cell lung
# DMS 273 small cell lung = tested on: DMS 273 small cell lung
# EKVX NSCLC = tested on: EKVX NSCLC
# HCC-2998 colon = tested on: HCC-2998 colon
# HCT-116 colon = tested on: HCT-116 colon
# HCT-15 colon = tested on: HCT-15 colon
# HOP-18 NSCLC = tested on: HOP-18 NSCLC
# HOP-62 NSCLC = tested on: HOP-62 NSCLC
# HOP-92 NSCLC = tested on: HOP-92 NSCLC
# HT29 colon = tested on: HT29 colon
# IGROV1 ovarian = tested on: IGROV1 ovarian
# K-562 leukemia = tested on: K-562 leukemia
# KM12 colon = tested on: KM12 colon
# KM20L2 colon = tested on: KM20L2 colon
# LOX IMVI melanoma = tested on: LOX IMVI melanoma
# LXFL 529 NSCLC = tested on: LXFL 529 NSCLC
# M14 melanoma = tested on: M14 melanoma
# M19-MEL melanoma = tested on: M19-MEL melanoma
# MALME-3M melanoma = tested on: MALME-3M melanoma
# MOLT-4 leukemia = tested on: MOLT-4 leukemia
# NCI-H226 lung = tested on: NCI-H226 lung
# NCI-H23 lung = tested on: NCI-H23 lung
# NCI-H460 lung = tested on: NCI-H460 lung
# NCI-H522 lung = tested on: NCI-H522 lung
# OVCAR-3 ovarian = tested on: OVCAR-3 ovarian
# OVCAR-4 ovarian = tested on: OVCAR-4 ovarian
# OVCAR-5 ovarian = tested on: OVCAR-5 ovarian
# OVCAR-8 ovarian = tested on: OVCAR-8 ovarian
# RPMI-8226 leukemia = tested on: RPMI-8226 leukemia
# RXF 393 renal = tested on: RXF 393 renal
# RXF-631 renal = tested on: RXF-631 renal
# SF-268 CNS = tested on: SF-268 CNS
# SF-295 CNS = tested on: SF-295 CNS
# SF-539 CNS = tested on: SF-539 CNS
# SK-MEL-2 melanoma = tested on: SK-MEL-2 melanoma
# SK-MEL-28 melanoma = tested on: SK-MEL-28 melanoma
# SK-MEL-5 melanoma = tested on: SK-MEL-5 melanoma
# SK-OV-3 ovarian = tested on: SK-OV-3 ovarian
# SN12C renal = tested on: SN12C renal
# SNB-19 CNS = tested on: SNB-19 CNS
# SNB-75 CNS = tested on: SNB-75 CNS
# SNB-78 CNS = tested on: SNB-78 CNS
# SR leukemia = tested on: SR leukemia
# SW-620 colon = tested on: SW-620 colon
# TK-10 renal = tested on: TK-10 renal
# U251 CNS = tested on: U251 CNS
# UACC-257 melanoma = tested on: UACC-257 melanoma
# UACC-62 melanoma = tested on: UACC-62 melanoma
# UO-31 renal = tested on: UO-31 renal
# XF 498 CNS = tested on: XF 498 CNS
# HL-60(TB) leukemia = tested on: HL-60(TB) leukemia
# MCF7 breast = tested on: MCF7 breast
# NCI/ADR-RES ovarian = tested on: NCI/ADR-RES ovarian
# P388 leukemia = tested on: P388 leukemia
# P388/ADR leukemia = tested on: P388/ADR leukemia
# SN12K1 renal = tested on: SN12K1 renal
structure (smiles),measurement,setting,value
C=C(C)[C@H]1CC[C@@]2(C)C(C1)[C@H](C)CC[C@@H]2O (stereo not given in full),TGI,786-0 renal,> 100 µM
same,TGI,A498 renal,> 100 µM
same,TGI,A549 NSCLC,> 100 µM
same,TGI,ACHN renal,> 100 µM
same,TGI,CAKI-1 renal,> 100 µM
same,TGI,CCRF-CEM leukemia,> 100 µM
same,TGI,COLO 205 colon,> 100 µM
same,TGI,DLD-1 colon,> 100 µM
same,TGI,DMS 114 small cell lung,> 100 µM
same,TGI,DMS 273 small cell lung,> 100 µM
same,TGI,EKVX NSCLC,> 100 µM
same,TGI,HCC-2998 colon,> 100 µM
same,TGI,HCT-116 colon,> 100 µM
same,TGI,HCT-15 colon,> 100 µM
same,TGI,HOP-18 NSCLC,> 100 µM
same,TGI,HOP-62 NSCLC,> 100 µM
same,TGI,HOP-92 NSCLC,> 100 µM
same,TGI,HT29 colon,> 100 µM
same,TGI,IGROV1 ovarian,> 100 µM
same,TGI,K-562 leukemia,> 100 µM
same,TGI,KM12 colon,> 100 µM
same,TGI,KM20L2 colon,> 100 µM
same,TGI,LOX IMVI melanoma,> 100 µM
same,TGI,LXFL 529 NSCLC,> 100 µM
same,TGI,M14 melanoma,> 100 µM
same,TGI,M19-MEL melanoma,> 100 µM
same,TGI,MALME-3M melanoma,> 100 µM
same,TGI,MOLT-4 leukemia,> 100 µM
same,TGI,NCI-H226 lung,> 100 µM
same,TGI,NCI-H23 lung,> 100 µM
same,TGI,NCI-H460 lung,> 100 µM
same,TGI,NCI-H522 lung,> 100 µM
same,TGI,OVCAR-3 ovarian,> 100 µM
same,TGI,OVCAR-4 ovarian,> 100 µM
same,TGI,OVCAR-5 ovarian,> 100 µM
same,TGI,OVCAR-8 ovarian,> 100 µM
same,TGI,RPMI-8226 leukemia,> 100 µM
same,TGI,RXF 393 renal,> 100 µM
same,TGI,RXF-631 renal,> 100 µM
same,TGI,SF-268 CNS,> 100 µM
same,TGI,SF-295 CNS,> 100 µM
same,TGI,SF-539 CNS,> 100 µM
same,TGI,SK-MEL-2 melanoma,> 100 µM
same,TGI,SK-MEL-28 melanoma,> 100 µM
same,TGI,SK-MEL-5 melanoma,> 100 µM
same,TGI,SK-OV-3 ovarian,> 100 µM
same,TGI,SN12C renal,> 100 µM
same,TGI,SNB-19 CNS,> 100 µM
same,TGI,SNB-75 CNS,> 100 µM
same,TGI,SNB-78 CNS,> 100 µM
same,TGI,SR leukemia,> 100 µM
same,TGI,SW-620 colon,> 100 µM
same,TGI,TK-10 renal,> 100 µM
same,TGI,U251 CNS,> 100 µM
same,TGI,UACC-257 melanoma,> 100 µM
same,TGI,UACC-62 melanoma,> 100 µM
same,TGI,UO-31 renal,> 100 µM
same,TGI,XF 498 CNS,> 100 µM
CNC(=O)OCc1nc(SC)n(C)c1CO,TGI,A498 renal,> 100 µM
same,TGI,A549 NSCLC,> 100 µM
same,TGI,CAKI-1 renal,> 100 µM
same,TGI,CCRF-CEM leukemia,> 100 µM
same,TGI,COLO 205 colon,> 100 µM
same,TGI,DLD-1 colon,> 100 µM
same,TGI,DMS 114 small cell lung,> 100 µM
same,TGI,DMS 273 small cell lung,> 100 µM
same,TGI,EKVX NSCLC,> 100 µM
same,TGI,HCC-2998 colon,> 100 µM
same,TGI,HCT-116 colon,> 100 µM
same,TGI,HCT-15 colon,> 100 µM
same,TGI,HL-60(TB) leukemia,> 100 µM
same,TGI,HOP-18 NSCLC,> 100 µM
same,TGI,HOP-62 NSCLC,> 100 µM
same,TGI,HOP-92 NSCLC,> 100 µM
same,TGI,HT29 colon,> 100 µM
same,TGI,IGROV1 ovarian,> 100 µM
same,TGI,K-562 leukemia,> 100 µM
same,TGI,KM12 colon,> 100 µM
same,TGI,KM20L2 colon,> 100 µM
same,TGI,LOX IMVI melanoma,> 100 µM
same,TGI,M19-MEL melanoma,> 100 µM
same,TGI,MALME-3M melanoma,3.42 µM
same,TGI,MCF7 breast,> 100 µM
same,TGI,MOLT-4 leukemia,> 100 µM
same,TGI,NCI-H226 lung,> 100 µM
same,TGI,NCI-H23 lung,> 100 µM
same,TGI,NCI-H460 lung,> 100 µM
same,TGI,NCI-H522 lung,> 100 µM
same,TGI,NCI/ADR-RES ovarian,> 100 µM
same,TGI,OVCAR-3 ovarian,> 100 µM
same,TGI,OVCAR-4 ovarian,> 100 µM
same,TGI,OVCAR-5 ovarian,> 100 µM
same,TGI,OVCAR-8 ovarian,> 100 µM
same,TGI,P388 leukemia,> 100 µM
same,TGI,P388/ADR leukemia,> 100 µM
same,TGI,RPMI-8226 leukemia,> 100 µM
same,TGI,RXF 393 renal,> 100 µM
same,TGI,SF-268 CNS,> 100 µM
same,TGI,SF-295 CNS,> 100 µM
same,TGI,SF-539 CNS,> 100 µM
same,TGI,SK-MEL-2 melanoma,> 66.8 µM
same,TGI,SK-MEL-28 melanoma,> 100 µM
same,TGI,SK-MEL-5 melanoma,> 100 µM
same,TGI,SK-OV-3 ovarian,> 100 µM
same,TGI,SN12C renal,> 100 µM
same,TGI,SN12K1 renal,> 100 µM
same,TGI,SNB-19 CNS,> 100 µM
same,TGI,SNB-75 CNS,> 100 µM
same,TGI,SNB-78 CNS,> 100 µM
same,TGI,SW-620 colon,> 100 µM
same,TGI,U251 CNS,> 100 µM
same,TGI,UACC-257 melanoma,> 100 µM
same,TGI,UACC-62 melanoma,> 100 µM
same,TGI,UO-31 renal,> 100 µM
same,TGI,XF 498 CNS,> 100 µM
